Measured values published in publication PMC11496704, “Synthesis and cytotoxicity studies of novel N-arylbenzo[h]quinazolin-2-amines” (Beilstein Journal of Organic Chemistry, 2024).

Each molecule was assayed on MCF7 (assay: Cytotoxicity secondary screen (IC50)). Details: Homo sapiens, 48 h exposure, mean of triplicates, NE: no effect.
Type: cell-based

| SMILES | IC50 |
| --- | --- |
| Cc1ccc(Nc2ncc3ccc4ccccc4c3n2)cc1 [Compound 4d, N-(p-tolyl)benzo[h]quinazolin-2-amine] | > 25 µM |
| Clc1cc(Br)cc(Nc2ncc3ccc4ccccc4c3n2)c1 [Compound 4q, N-(3-bromo-5-chlorophenyl)benzo[h]quinazolin-2-amine] | 14 µM |
| Clc1ccccc1Nc1ncc2ccc3ccccc3c2n1 [Compound 4k, N-(2-chlorophenyl)benzo[h]quinazolin-2-amine] | > 25 µM |
| COc1ccccc1Nc1ncc2ccc3ccccc3c2n1 [Compound 4e, N-(2-methoxyphenyl)benzo[h]quinazolin-2-amine] | 22 µM |

What follows are molecules tested on HuH-7 (assay: Cytotoxicity secondary screen (IC50)). Details: Homo sapiens, 48 h exposure, mean of triplicates, NE: no effect.
Type: cell-based
Procedure: (§1) Cell culture. Skin normal fibroblastic cells are purchased from Lonza (Basel, Switzerland), HuH-7, Caco-2, MDA-MB-231, HCT-116, PC3, MCF7 and NCI-H727 cancer cell lines were obtained from ATCC (American Type Culture Collection). Cells are grown at 37 °C, 5% CO2 in ATCC recommended media: DMEM for HuH-7, MDA-MB-231, MDA-MB-468 and fibroblast, EMEM for MCF7 and CaCo-2, McCoy’s for HCT-116 and RPMI for PC3 and NCI-H727. All culture media are supplemented by 10% of FBS, 1% of penicillin-streptomycin and 2 mM glutamine.
(§2) Both studies have been performed following the protocols described in a previous paper, see ref. [2].

| SMILES | IC50 |
| --- | --- |
| Cc1ccc(Nc2ncc3ccc4ccccc4c3n2)cc1 [Compound 4d, N-(p-tolyl)benzo[h]quinazolin-2-amine] | > 25 µM |
| Clc1cc(Br)cc(Nc2ncc3ccc4ccccc4c3n2)c1 [Compound 4q, N-(3-bromo-5-chlorophenyl)benzo[h]quinazolin-2-amine] | 16 µM |
| Clc1ccccc1Nc1ncc2ccc3ccccc3c2n1 [Compound 4k, N-(2-chlorophenyl)benzo[h]quinazolin-2-amine] | > 25 µM |
| COc1ccccc1Nc1ncc2ccc3ccccc3c2n1 [Compound 4e, N-(2-methoxyphenyl)benzo[h]quinazolin-2-amine] | > 25 µM |

These molecules were tested on PC3 (assay: Cytotoxicity secondary screen (IC50)). Details: Homo sapiens, PC-3; 48 h exposure, mean of triplicates; NE: no effect.
Type: cell-based
Procedure: as §1, §2

| SMILES | IC50 |
| --- | --- |
| Cc1ccc(Nc2ncc3ccc4ccccc4c3n2)cc1 [Compound 4d, N-(p-tolyl)benzo[h]quinazolin-2-amine] | 30 µM |
| Clc1cc(Br)cc(Nc2ncc3ccc4ccccc4c3n2)c1 [Compound 4q, N-(3-bromo-5-chlorophenyl)benzo[h]quinazolin-2-amine] | 19 µM |
| Clc1ccccc1Nc1ncc2ccc3ccccc3c2n1 [Compound 4k, N-(2-chlorophenyl)benzo[h]quinazolin-2-amine] | > 25 µM |
| COc1ccccc1Nc1ncc2ccc3ccccc3c2n1 [Compound 4e, N-(2-methoxyphenyl)benzo[h]quinazolin-2-amine] | > 25 µM |

What follows are molecules tested on normal human fibroblasts (assay: Cytotoxicity secondary screen (IC50)). Details: Fibroblast, 48 h exposure, mean of triplicates, NE: no effect, highest concentration tested 25 μM, read-out: IC50 Fibro.
Type: cell-based
Procedure: as §1, §2

| SMILES | IC50 |
| --- | --- |
| Cc1ccc(Nc2ncc3ccc4ccccc4c3n2)cc1 [Compound 4d, N-(p-tolyl)benzo[h]quinazolin-2-amine] | > 25 µM |
| Clc1cc(Br)cc(Nc2ncc3ccc4ccccc4c3n2)c1 [Compound 4q, N-(3-bromo-5-chlorophenyl)benzo[h]quinazolin-2-amine] | > 25 µM |
| Clc1ccccc1Nc1ncc2ccc3ccccc3c2n1 [Compound 4k, N-(2-chlorophenyl)benzo[h]quinazolin-2-amine] | > 25 µM |
| COc1ccccc1Nc1ncc2ccc3ccccc3c2n1 [Compound 4e, N-(2-methoxyphenyl)benzo[h]quinazolin-2-amine] | > 25 µM |

Each molecule was assayed on Caco-2 (assay: Cytotoxicity secondary screen (IC50)). Details: Homo sapiens, 48 h exposure, mean of triplicates, NE: no effect.
Type: cell-based
Procedure: (§3) Next, we performed a cytotoxicity screening of the nineteen molecules 4a–s, at 25 μM, investigating seven representative cancer cell lines: hepatocellular carcinoma HuH-7, colorectal adenocarcinoma CaCo-2, breast carcinoma MDA-MB-231 and MDA-MB-468, colorectal carcinoma HCT-116, prostate carcinoma PC3 and breast carcinoma MCF7. […] For details see: ref. [2] and Supporting Information File 1, Table S1.
as §1, §2

| SMILES | IC50 |
| --- | --- |
| Cc1ccc(Nc2ncc3ccc4ccccc4c3n2)cc1 [Compound 4d, N-(p-tolyl)benzo[h]quinazolin-2-amine] | > 25 µM |
| Clc1cc(Br)cc(Nc2ncc3ccc4ccccc4c3n2)c1 [Compound 4q, N-(3-bromo-5-chlorophenyl)benzo[h]quinazolin-2-amine] | 14 µM |
| Clc1ccccc1Nc1ncc2ccc3ccccc3c2n1 [Compound 4k, N-(2-chlorophenyl)benzo[h]quinazolin-2-amine] | > 25 µM |
| COc1ccccc1Nc1ncc2ccc3ccccc3c2n1 [Compound 4e, N-(2-methoxyphenyl)benzo[h]quinazolin-2-amine] | 20 µM |

These molecules were tested on HCT-116 (assay: Cytotoxicity secondary screen (IC50)). Details: Homo sapiens, 48 h exposure, mean of triplicates, NE: no effect.
Type: cell-based
Procedure: as §3, §1, §2

| SMILES | IC50 |
| --- | --- |
| Cc1ccc(Nc2ncc3ccc4ccccc4c3n2)cc1 [Compound 4d, N-(p-tolyl)benzo[h]quinazolin-2-amine] | 5 µM |
| Clc1cc(Br)cc(Nc2ncc3ccc4ccccc4c3n2)c1 [Compound 4q, N-(3-bromo-5-chlorophenyl)benzo[h]quinazolin-2-amine] | 13 µM |
| Clc1ccccc1Nc1ncc2ccc3ccccc3c2n1 [Compound 4k, N-(2-chlorophenyl)benzo[h]quinazolin-2-amine] | > 25 µM |
| COc1ccccc1Nc1ncc2ccc3ccccc3c2n1 [Compound 4e, N-(2-methoxyphenyl)benzo[h]quinazolin-2-amine] | 26 µM |

The molecules below were run on MDA468 (assay: Cytotoxicity primary screen (single dose)). Details: single dose 25 μM, 48 h exposure, mean of triplicates; read-out: percentage of cell survival over DMSO control, MDA468.
Type: cell-based
Procedure: as §3, §1, §2
(§4) Table S1: Cytotoxicity studies (single dose at 25µM) of N-arylbenzo[h]quinazolin-2-amines 4a–s
(§5) The toxicity is expressed as the percentage of cell survival (from 100 % to 0 %) over DMSO control after 48 h exposure (mean of triplicates).
(§6) Effect of the solvent (DMSO) was studied at 0.25%.

| SMILES | viability at 25 µM |
| --- | --- |
| Cc1ccc(Nc2ncc3ccc4ccccc4c3n2)cc1 [Compound 4d, N-(p-tolyl)benzo[h]quinazolin-2-amine] | 72% |
| Clc1cc(Br)cc(Nc2ncc3ccc4ccccc4c3n2)c1 [Compound 4q, N-(3-bromo-5-chlorophenyl)benzo[h]quinazolin-2-amine] | 38% |
| Clc1ccccc1Nc1ncc2ccc3ccccc3c2n1 [Compound 4k, N-(2-chlorophenyl)benzo[h]quinazolin-2-amine] | 93% |
| COc1ccccc1Nc1ncc2ccc3ccccc3c2n1 [Compound 4e, N-(2-methoxyphenyl)benzo[h]quinazolin-2-amine] | 46% |

The molecules below were run on PC3 (assay: Cytotoxicity primary screen (single dose)). Details: Homo sapiens, PC-3; single dose 25 μM, 48 h exposure, mean of triplicates; read-out: percentage of cell survival over DMSO control, PC3.
Type: cell-based
Procedure: as §3, §1, §2, §4, §5, §6

| SMILES | viability at 25 µM |
| --- | --- |
| Cc1ccc(Nc2ncc3ccc4ccccc4c3n2)cc1 [Compound 4d, N-(p-tolyl)benzo[h]quinazolin-2-amine] | 65% |
| Clc1cc(Br)cc(Nc2ncc3ccc4ccccc4c3n2)c1 [Compound 4q, N-(3-bromo-5-chlorophenyl)benzo[h]quinazolin-2-amine] | 24% |
| Clc1ccccc1Nc1ncc2ccc3ccccc3c2n1 [Compound 4k, N-(2-chlorophenyl)benzo[h]quinazolin-2-amine] | 73% |
| COc1ccccc1Nc1ncc2ccc3ccccc3c2n1 [Compound 4e, N-(2-methoxyphenyl)benzo[h]quinazolin-2-amine] | 21% |

The molecules below were run on MDA231 (assay: Cytotoxicity primary screen (single dose)). Details: Homo sapiens, MDA-MB-231; single dose 25 μM, 48 h exposure, mean of triplicates; read-out: percentage of cell survival over DMSO control, MDA231.
Type: cell-based
Procedure: as §3, §1, §2, §4, §5, §6

| SMILES | viability at 25 µM |
| --- | --- |
| Cc1ccc(Nc2ncc3ccc4ccccc4c3n2)cc1 [Compound 4d, N-(p-tolyl)benzo[h]quinazolin-2-amine] | 67% |
| Clc1cc(Br)cc(Nc2ncc3ccc4ccccc4c3n2)c1 [Compound 4q, N-(3-bromo-5-chlorophenyl)benzo[h]quinazolin-2-amine] | 41% |
| Clc1ccccc1Nc1ncc2ccc3ccccc3c2n1 [Compound 4k, N-(2-chlorophenyl)benzo[h]quinazolin-2-amine] | 91% |
| COc1ccccc1Nc1ncc2ccc3ccccc3c2n1 [Compound 4e, N-(2-methoxyphenyl)benzo[h]quinazolin-2-amine] | 40% |

These molecules were tested on HCT116 (assay: Cytotoxicity primary screen (single dose)). Details: Homo sapiens, HCT-116; single dose 25 μM, 48 h exposure, mean of triplicates; read-out: percentage of cell survival over DMSO control, HCT116.
Type: cell-based
Procedure: as §3, §1, §2, §4, §5, §6

| SMILES | viability at 25 µM |
| --- | --- |
| Cc1ccc(Nc2ncc3ccc4ccccc4c3n2)cc1 [Compound 4d, N-(p-tolyl)benzo[h]quinazolin-2-amine] | 54% |
| Clc1cc(Br)cc(Nc2ncc3ccc4ccccc4c3n2)c1 [Compound 4q, N-(3-bromo-5-chlorophenyl)benzo[h]quinazolin-2-amine] | 13% |
| Clc1ccccc1Nc1ncc2ccc3ccccc3c2n1 [Compound 4k, N-(2-chlorophenyl)benzo[h]quinazolin-2-amine] | 83% |
| COc1ccccc1Nc1ncc2ccc3ccccc3c2n1 [Compound 4e, N-(2-methoxyphenyl)benzo[h]quinazolin-2-amine] | 8% |

Each molecule was assayed on MCF7 (assay: Cytotoxicity primary screen (single dose)). Details: Homo sapiens, single dose 25 μM, 48 h exposure, mean of triplicates, read-out: percentage of cell survival over DMSO control, MCF7.
Type: cell-based
Procedure: as §3, §1, §2, §4, §5, §6

| SMILES | viability at 25 µM |
| --- | --- |
| Cc1ccc(Nc2ncc3ccc4ccccc4c3n2)cc1 [Compound 4d, N-(p-tolyl)benzo[h]quinazolin-2-amine] | 61% |
| Clc1cc(Br)cc(Nc2ncc3ccc4ccccc4c3n2)c1 [Compound 4q, N-(3-bromo-5-chlorophenyl)benzo[h]quinazolin-2-amine] | 73% |
| Clc1ccccc1Nc1ncc2ccc3ccccc3c2n1 [Compound 4k, N-(2-chlorophenyl)benzo[h]quinazolin-2-amine] | 56% |
| COc1ccccc1Nc1ncc2ccc3ccccc3c2n1 [Compound 4e, N-(2-methoxyphenyl)benzo[h]quinazolin-2-amine] | 82% |

These molecules were tested on MDA-MB-231 (assay: Cytotoxicity secondary screen (IC50)). Details: Homo sapiens, 48 h exposure, mean of triplicates, NE: no effect.
Type: cell-based

| SMILES | IC50 |
| --- | --- |
| Cc1ccc(Nc2ncc3ccc4ccccc4c3n2)cc1 [Compound 4d, N-(p-tolyl)benzo[h]quinazolin-2-amine] | > 25 µM |
| Clc1cc(Br)cc(Nc2ncc3ccc4ccccc4c3n2)c1 [Compound 4q, N-(3-bromo-5-chlorophenyl)benzo[h]quinazolin-2-amine] | 20 µM |
| Clc1ccccc1Nc1ncc2ccc3ccccc3c2n1 [Compound 4k, N-(2-chlorophenyl)benzo[h]quinazolin-2-amine] | > 25 µM |
| COc1ccccc1Nc1ncc2ccc3ccccc3c2n1 [Compound 4e, N-(2-methoxyphenyl)benzo[h]quinazolin-2-amine] | 25 µM |

These molecules were tested on HuH7 (assay: Cytotoxicity primary screen (single dose)). Details: Homo sapiens, Huh-7; single dose 25 μM, 48 h exposure, mean of triplicates; read-out: percentage of cell survival over DMSO control, HuH7.
Type: cell-based
Procedure: as §3, §1, §2, §4, §5, §6

| SMILES | viability at 25 µM |
| --- | --- |
| Cc1ccc(Nc2ncc3ccc4ccccc4c3n2)cc1 [Compound 4d, N-(p-tolyl)benzo[h]quinazolin-2-amine] | 85% |
| Clc1cc(Br)cc(Nc2ncc3ccc4ccccc4c3n2)c1 [Compound 4q, N-(3-bromo-5-chlorophenyl)benzo[h]quinazolin-2-amine] | 49% |
| Clc1ccccc1Nc1ncc2ccc3ccccc3c2n1 [Compound 4k, N-(2-chlorophenyl)benzo[h]quinazolin-2-amine] | 76% |
| COc1ccccc1Nc1ncc2ccc3ccccc3c2n1 [Compound 4e, N-(2-methoxyphenyl)benzo[h]quinazolin-2-amine] | 55% |

The molecules below were run on Caco-2 (assay: Cytotoxicity primary screen (single dose)). Details: single dose 25 μM, 48 h exposure, mean of triplicates.
Type: cell-based
Procedure: as §3, §1, §2, §4, §5, §6

| SMILES | percentage of cell survival over DMSO control, CaCo-2 |
| --- | --- |
| Cc1ccc(Nc2ncc3ccc4ccccc4c3n2)cc1 [Compound 4d, N-(p-tolyl)benzo[h]quinazolin-2-amine] | 63% |
| Clc1cc(Br)cc(Nc2ncc3ccc4ccccc4c3n2)c1 [Compound 4q, N-(3-bromo-5-chlorophenyl)benzo[h]quinazolin-2-amine] | 35% |
| Clc1ccccc1Nc1ncc2ccc3ccccc3c2n1 [Compound 4k, N-(2-chlorophenyl)benzo[h]quinazolin-2-amine] | 61% |
| COc1ccccc1Nc1ncc2ccc3ccccc3c2n1 [Compound 4e, N-(2-methoxyphenyl)benzo[h]quinazolin-2-amine] | 59% |

The molecules below were run on MDA-MB-468 (assay: Cytotoxicity secondary screen (IC50)). Details: Homo sapiens, 48 h exposure, mean of triplicates, NE: no effect.
Type: cell-based

| SMILES | IC50 |
| --- | --- |
| Cc1ccc(Nc2ncc3ccc4ccccc4c3n2)cc1 [Compound 4d, N-(p-tolyl)benzo[h]quinazolin-2-amine] | 31 µM |
| Clc1cc(Br)cc(Nc2ncc3ccc4ccccc4c3n2)c1 [Compound 4q, N-(3-bromo-5-chlorophenyl)benzo[h]quinazolin-2-amine] | 19 µM |
| Clc1ccccc1Nc1ncc2ccc3ccccc3c2n1 [Compound 4k, N-(2-chlorophenyl)benzo[h]quinazolin-2-amine] | > 25 µM |
| COc1ccccc1Nc1ncc2ccc3ccccc3c2n1 [Compound 4e, N-(2-methoxyphenyl)benzo[h]quinazolin-2-amine] | 25 µM |
